Data from US9695155B2, “Herbicidal substituted pyrimidinyloxy benzene compounds” (E. I. DU PONT DE NEMOURS AND COMPANY, priority 2013, dated 2017).

Key:
deadnettle = assay: Test D preemergence; assay type: in vivo, Lamium amplexicaule; details: Lamium amplexicaule, pre-emergence, scale 0-100, read-out: Plant response rating, Deadnettle
How it was run: (§1)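 Plant response is a visual score from 0 (no effect) to 100 (complete control) relative to controls. Plants were kept in a controlled growth environment for 7 to 21 days after spraying. Preemergence treatments went onto silt loam soil; postemergence ones onto 1- to 4-leaf seedlings.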

spring wheat = assay: Test D preemergence; assay type: in vivo, Triticum aestivum; details: Triticum aestivum, pre-emergence
How it was run: as §1

winter wheat = assay: Test D preemergence; assay type: in vivo, Triticum aestivum; details: Triticum aestivum, pre-emergence
How it was run: as §1

wild mustard = assay: Test D preemergence; assay type: in vivo, Sinapis arvensis; details: Brassica, pre-emergence, scale 0-100, read-out: Plant response rating, Mustard, Wild
How it was run: as §1

bluegrass = assay: Test D postemergence; assay type: in vivo, Poa annua; details: Poa annua, post-emergence, Postemergence, scale 0 to 100 (0 no effect, 100 complete control), read-out: Plant response rating, Bluegrass
How it was run: as §1

galium = assay: Test D postemergence; assay type: in vivo, Galium aparine; details: Galium, post-emergence, scale 0 to 100 (0 no effect, 100 complete control), read-out: Plant response rating, Galium
How it was run: as §1

field violet = assay: Test D postemergence; assay type: in vivo, Viola arvensis; details: Viola arvensis, post-emergence, scale 0 to 100 (0 no effect, 100 complete control), read-out: Plant response rating, Field Violet
How it was run: as §1

Italian ryegrass = assay: Test D postemergence; assay type: in vivo, Lolium multiflorum; details: Lolium multiflorum, post-emergence, scale 0 to 100 (0 no effect, 100 complete control), read-out: Plant response rating, Ryegrass, Italian
How it was run: as §1

oilseed rape = assay: Test D postemergence; assay type: in vivo, Brassica napus; details: Brassica napus, post-emergence, scale 0 to 100 (0 no effect, 100 complete control), read-out: Plant response rating, Oilseed Rape
How it was run: as §1

corn = assay: Test E postemergence; assay type: in vivo, Zea mays; details: Zea mays, post-emergence
How it was run: (§2)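 Response was scored visually on a 0-100 scale (100 = complete control) versus controls after 14 to 21 days in the greenhouse. Test chemicals, formulated with surfactant in a non-phytotoxic solvent mixture, had been applied preemergence to seeds in silt loam soil or postemergence to 1- to 4-leaf plants in potting medium.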

soybean = assay: Test E postemergence; assay type: in vivo, Glycine max; details: Glycine max, post-emergence
How it was run: as §2

sandbur = assay: Test E postemergence; assay type: in vivo, Cenchrus echinatus; details: Cenchrus echinatus, post-emergence, read-out: Plant response rating, Sandbur
How it was run: as §2

arrowleaf sida = assay: Test E postemergence; assay type: in vivo, Sida rhombifolia; details: Sida rhombifolia, post-emergence, read-out: Plant response rating, Arrowleaf Sida
How it was run: as §2

[1] = Postemergence, 31 g ai/ha, scale 0 to 100
[2] = Postemergence, 62 g ai/ha, scale 0 to 100
[3] = Postemergence, 125 g ai/ha, scale 0 to 100
[4] = Postemergence, 250 g ai/ha, scale 0 to 100
[5] = postemergence, 16 g ai/ha, scale 0 to 100, 0 no effect, 100 complete control

SMILES: N#Cc1cccc(Oc2ncc(Cl)cn2)c1-n1cc(C(F)(F)F)cn1 [Compound 58, 3-[(5-chloro-2-pyrimidinyl)oxy]-2-[4-(trifluoromethyl)-1H-pyrazol-1-yl]benzonitrile]
- pest or weed control at 31 g/ha (deadnettle; 31 g ai/ha): 100%
- pest or weed control at 62 g/ha (deadnettle; 62 g ai/ha): 100%
- pest or weed control at 125 g/ha (deadnettle; 125 g ai/ha): 100%
- pest or weed control at 250 g/ha (deadnettle; 250 g ai/ha): 100%
- plant injury at 31 g/ha (spring wheat; 31 g ai/ha, scale 0 (no effect) to 100 (complete control), read-out: Plant response rating, Wheat, Spring): 0%
- plant injury at 62 g/ha (spring wheat; 62 g ai/ha, scale 0-100, read-out: Plant response rating, Wheat, Spring): 15%
- plant injury at 125 g/ha (spring wheat; 125 g ai/ha, scale 0-100, read-out: Plant response rating, Wheat, Spring): 75%
- plant injury at 250 g/ha (spring wheat; 250 g ai/ha, scale 0-100, read-out: Plant response rating, Wheat, Spring): 100%
- plant injury at 31 g/ha (winter wheat; 31 g ai/ha, scale 0 (no effect) to 100 (complete control), read-out: Plant response rating, Wheat, Winter): 0%
- plant injury at 62 g/ha (winter wheat; 62 g ai/ha, scale 0-100, read-out: Plant response rating, Wheat, Winter): 20%
- plant injury at 125 g/ha (winter wheat; 125 g ai/ha, scale 0-100, read-out: Plant response rating, Wheat, Winter): 50%
- plant injury at 250 g/ha (winter wheat; 250 g ai/ha, scale 0-100, read-out: Plant response rating, Wheat, Winter): 90%
- pest or weed control at 31 g/ha (wild mustard; 31 g ai/ha): 90%
- pest or weed control at 62 g/ha (wild mustard; 62 g ai/ha): 100%
- pest or weed control at 125 g/ha (wild mustard; 125 g ai/ha): 100%
- pest or weed control at 250 g/ha (wild mustard; 250 g ai/ha): 100%
- pest or weed control at 31 g/ha (bluegrass; 31 g ai/ha): 25%
- pest or weed control at 62 g/ha (bluegrass; 62 g ai/ha): 35%
- pest or weed control at 125 g/ha (bluegrass; 125 g ai/ha): 45%
- pest or weed control at 250 g/ha (bluegrass; 250 g ai/ha): 55%
- pest or weed control at 31 g/ha (galium; 31 g ai/ha): 70%
- pest or weed control at 62 g/ha (galium; 62 g ai/ha): 100%
- pest or weed control at 125 g/ha (galium; 125 g ai/ha): 100%
- pest or weed control at 250 g/ha (galium; 250 g ai/ha): 100%
- pest or weed control at 31 g/ha (field violet; 31 g ai/ha): 100%
- pest or weed control at 62 g/ha (field violet; 62 g ai/ha): 100%
- pest or weed control at 125 g/ha (field violet; 125 g ai/ha): 100%
- pest or weed control at 250 g/ha (field violet; 250 g ai/ha): 100%
- pest or weed control at 31 g/ha (Italian ryegrass; 31 g ai/ha): 10%
- pest or weed control at 62 g/ha (Italian ryegrass; 62 g ai/ha): 20%
- pest or weed control at 125 g/ha (Italian ryegrass; 125 g ai/ha): 50%
- pest or weed control at 250 g/ha (Italian ryegrass; 250 g ai/ha): 65%
- plant injury at 31 g/ha (oilseed rape; 31 g ai/ha): 55%
- plant injury at 62 g/ha (oilseed rape; 62 g ai/ha): 85%
- plant injury at 125 g/ha (oilseed rape; 125 g ai/ha): 95%
- plant injury at 250 g/ha (oilseed rape; 250 g ai/ha): 95%
- corn plant response (injury) rating, 0-100 at 31 g/ha (corn; [1]): 10%
- corn plant response (injury) rating, 0-100 at 62 g/ha (corn; [2]): 10%
- corn plant response (injury) rating, 0-100 at 125 g/ha (corn; [3]): 10%
- corn plant response (injury) rating, 0-100 at 250 g/ha (corn; [4]): 15%
- corn plant response (injury) rating, 0-100 at 16 g/ha (corn; [5]): 5%
- plant response (crop injury) rating, soybean, 0-100 scale at 31 g/ha (soybean; [1]): 95%
- plant response (crop injury) rating, soybean, 0-100 scale at 62 g/ha (soybean; [2]): 95%
- plant response (crop injury) rating, soybean, 0-100 scale at 125 g/ha (soybean; [3]): 95%
- plant response (crop injury) rating, soybean, 0-100 scale at 250 g/ha (soybean; [4]): 100%
- plant response (crop injury) rating, soybean, 0-100 scale at 16 g/ha (soybean; [5]): 75%
- pest or weed control at 31 g/ha (sandbur; [1]): 10%
- pest or weed control at 62 g/ha (sandbur; [2]): 10%
- pest or weed control at 125 g/ha (sandbur; [3]): 20%
- pest or weed control at 250 g/ha (sandbur; [4]): 55%
- pest or weed control at 16 g/ha (sandbur; [5]): 0%
- pest or weed control at 31 g/ha (arrowleaf sida; [1]): 80%
- pest or weed control at 62 g/ha (arrowleaf sida; [2]): 90%
- pest or weed control at 125 g/ha (arrowleaf sida; [3]): 95%
- pest or weed control at 250 g/ha (arrowleaf sida; [4]): 98%
- pest or weed control at 16 g/ha (arrowleaf sida; [5]): 70%
